Measurements: patent publication US20220040280A1, “INHIBITORS AND USES THEREOF” (UNIVERSITY OF CANBERRA, priority 2016, published 2022)
Entries after “also recorded” stand apart in the source; their conditions may differ. Residues, ends and D or L forms follow the SMILES beside them. *: point of attachment. Myristoyl = CCCCCCCCCCCCCC(=O)*

B1: IFNγ: interferon gamma used as stimulus (10 μg/mL) (protein, UniProt P01579 24-161, looked up)
Interferon gamma: QDPYVKEAENLKKYFNAGHSDVADNGTLFLGILKNWKEESDRKIMQSQIVSFYFKLFKNFKDDQSIQKSVETIKEDMNVKFFNSNKKKRDDFEKLTNYSVTDLNVQRKAIHELIQVMAELSPAAKTGKRKRSQMLFRG

Experiments:
LSD1 = biological target: T1, LSD1 (Homo sapiens, UniProt O60341); assay: LSD1 nuclear translocation in MDA-MB-231 cells, confocal microscopy; type: cell-based; conditions: FIG. 19 and FIG. 31
T1 construct: endogenous in cells; host or cells: MCF7 (non-stimulated or PMA-stimulated) and MDA-MB-231 breast cancer cells
Procedure: (§1) MDA-MB-231 or MCF7 cells were treated with one of L1, L2 or L3 and a control. Cells were then fixed with 3.7% formaldehyde and permeabilized with 2% Triton-X-100, then probed with a primary mouse antibody against LSD1 or a primary rabbit antibody against PD-L1, EGFR or MET, followed by visualization with a secondary goat antibody to mouse or rabbit immunoglobulins conjugated to Alexa-Fluor 488. Confocal laser scanning microscopy was used to measure the Fn/c (ratio of nuclear to cytoplasmic fluorescent intensity) ratio of LSD1 with Fiji-imageJ or the total nuclear fluorescence of PD-L1, EGFR or MET. Values are plotted with significant differences indicated using the Mann-Whitney T-test, with at least 20 cells counted per sample. Representative images for each treatment are shown.
Confocal laser scanning microscopy was performed on MDA-MB-231 cells treated with a LSD1 peptide inhibitor, L1, L2 or L3, or vehicle alone. Cells were fixed with 3.7% formaldehyde and permeabilized with 2% Triton-X-100, and then probed with a primary mouse antibody to LSD1, followed by the corresponding secondary antibody conjugated to Alexa-Fluor 488. Confocal laser scanning microscopy was used to determine the Fn/c ratio of LSD1 with image-J. Values are plotted with significant differences indicated. Data shown represent the mean±SE for at least 20 individual cells.

MDA-MB-231 cells = conditions: 100 μM, FIG. 21
Procedure: (§4) 5×10^4 MCF7 or MDA-MB-231 cells were seeded with 1 mL of complete DMEM in 12 well plates overnight. […] Samples were harvested by trypsinisation followed by washing with DPBS containing 2% HI-FBS. FACS staining were performed using anti-human CD44-APC, anti-human CD24-PE, Hoechst, and anti-human EpCAM antibody cocktails. Data was collected from a BD FACSLSR-II flow cytometer. Treestar FlowJo was used for data analysis.

PD-L1 [1] = assay: Confocal microscopy of PD-L1 in MDA-MB-231 cells treated with peptide inhibitors; type: cell-based, human; conditions: for cytoplasmic/surface expression of PD-L1 (TCFI) / expression of nuclear PD-L1 (TNFI) / PD-L1 nuclear expression: MDA-MB-231 cells; for cytoplasmic/surface expression of PD-L1 (TCFI) / expression of nuclear PD-L1 (TNFI): FIG. 6; for PD-L1 nuclear expression: in comparison to the control, FIG. 22 (50 μM and 100 μM); for Fn/c ratio (nuclear bias) of PD-L1: peptide treated MDA-MB-231 cells
Procedure: (§2) Cells were probed with either rabbit antibodies to LSD1s111p (Merck ABE1462), EGFR (AB2430), MET (ab51067), PD-L1 (sc-50298), goat antibodies to PD-L1 (sc-19091), SC-14033), (sc-19096), mouse antibodies to Cytokeratin (Miltenyi 130-090-866), CSV (Abnova H00007431-M08), vimentin (SC-6260) followed by visualisation with secondary anti mouse Alexa-Fluor 568 (A10037), secondary anti rabbit Alexa-Fluor 488 (A21206) or secondary anti goat Alexa-Fluor 633 (A21082).
as §1

MCF7 cells = conditions: PMA stimulated MCF7 cells, 50 μM and 100 μM tested, FIG. 20
Procedure: as §4

[2] = biological target: T2, LSD1 phosphorylated at serine 111 (LSD1s111p) (Homo sapiens, UniProt O60341); assay: Confocal microscopy of LSD1s111p in MDA-MB-231 cells treated with peptide inhibitors; type: cell-based; conditions: relative to control, FIG. 4
T2 construct: endogenous in cells; host or cells: MCF7 (non-stimulated or PMA-stimulated) and MDA-MB-231 breast cancer cells
Procedure: as §2, §1

PD-L1 [3] = assay: Confocal microscopy of PD-L1 in MCF7 cells treated with peptide inhibitors; type: cell-based, human; conditions: for abrogation of nuclear PD-L1 expression: epithelial non-stimulated MCF7 cells, compared with stimulated cells; for Fn/c ratio (nuclear bias) of PD-L1: peptide treated MCF7 cells; for cytoplasmic/surface expression of PD-L1 (TCFI): stimulated MCF7 cells; for cytoplasmic/surface expression of PD-L1 (TCFI) / expression of nuclear PD-L1 (TNFI): FIG. 5; for expression of nuclear PD-L1 (TNFI): stimulated, mesenchymal MCF7 cells
Procedure: as §2, §1

[4] = biological target: T2, LSD1 phosphorylated at serine 111 (LSD1s111p); assay: Confocal microscopy of LSD1s111p in MCF7 cells treated with peptide inhibitors; type: cell-based; conditions: stimulated and non-stimulated MCF7 cells, relative to control, FIG. 4
Procedure: as §2, §1

EGFR = assay: Confocal microscopy of EGFR in MDA-MB-231 cells treated with peptide inhibitors; type: cell-based, human; conditions: in comparison to control, FIG. 23
Procedure: as §1

MET = assay: Confocal microscopy of MET in MDA-MB-231 cells treated with peptide inhibitors; type: cell-based, human; conditions: in comparison to control, FIG. 24
Procedure: as §1

[5] = tested on: MDA-MB-231 breast cancer cells; assay: Flow cytometry of stimulated MDA-MB-231 cells (PD-L1, CD44, CD24); type: cell-based, human; conditions: for Median Fluorescence Intensity (MFI) of PD-L1, change on stimulation: MDA-MB-231 cells
Procedure: MCF7 and MDA-MB-231 cells were obtained from the American Type Culture Collection (Manassas, Va.). Cells were cultured in DMEM (Invitrogen, Life Technologies, Carlsbad, Calif.) supplemented with 10% FBS, 2 mM L-glutamine, and 1% penicillin-streptomycin-neomycin. MCF7 cells were stimulated with 1.32 ng/ml phorbol 12-myristate 13-acetate (PMA) (Sigma-Aldrich, St Louis, Mo.) or 5 ng/ml recombinant TGF-β1 (R&D Systems, Minneapolis, Minn.) for 60 h. For the co-culture assay MDA-MB-231 cells were stimulated with Jurkat T-cells at defined ratios.
(§3) Isolated PBMCs and CTCs were stained with CD45−APC, pan-cytokeratin (CK)-FITC, EpCAM-Percp-Cy5.5 and PD-L1-BV421 antibodies. Co-cultured MDA-MB-231 cells were stained with CD44, CD24 and PD-L1. Flow cytometric analysis was performed on single cell suspensions for using the BD LSR II Flow Cytometer.

[6] = tested on: MDA-MB-231 breast cancer cells; assay: as above; type: cell-based, human; conditions: IFNγ 10 μg/mL, PMA 24 ng/mL, 24 or 48 hours
PD-L1 [7] = assay: FACS of PD-L1 in CD45-CK+ circulating tumor cells from patient liquid biopsies; type: cell-based, human; conditions: CD45-CK+ CTCs
Procedure: as §3

[8] = stimulated MDA-MB-231, 24 hours
[9] = stimulated MDA-MB-231, 48 hours

Molecule	nuclear translocation of LSD1 (Fn/c) (LSD1)	cancer stem cell formation (MDA-MB-231 cells)	cytoplasmic/surface expression of PD-L1 (TCFI) (PD-L1 [1])	expression of nuclear PD-L1 (TNFI) (PD-L1 [1])	PD-L1 nuclear expression (PD-L1 [1])	Fn/c ratio (nuclear bias) of PD-L1 (PD-L1 [1])	cancer stem cell formation (MCF7 cells)	nuclear expression of LSD1s111p (TNFI) [2]	abrogation of nuclear PD-L1 expression (PD-L1 [3])	Fn/c ratio (nuclear bias) of PD-L1 (PD-L1 [3])	cytoplasmic/surface expression of PD-L1 (TCFI) (PD-L1 [3])	expression of nuclear PD-L1 (TNFI) (PD-L1 [3])	nuclear expression of LSD1s111p (TNFI) [4]	EGFR nuclear expression (TNFI) (EGFR)	MET nuclear expression (TNFI) (MET)	Median Fluorescence Intensity (MFI) of PD-L1, change on stimulation [5]	CD44^hi CD24^lo (Frequency of parent, %) [5, 8]	CD44^hi CD24^lo, PD-L1+ (Frequency of parent, %) [5, 8]	Mean Fluorescence Intensity of Comp Pacific Blue-A PD-L1, CD44^hi CD24^lo, PD-L1+ subset [5, 8]	Mean Fluorescence Intensity of Comp Pacific Blue-A PD-L1, PD-L1+ subset [5, 8]	further results
CCCCCCCCCCCCCC(=O)N[C@@H](CCCNC(=N)N)C(=O)N[C@@H](CCCNC(=N)N)C(=O)N[C@H](C(=O)N[C@@H](C)C(=O)N[C@@H](CCCNC(=N)N)C(=O)N[C@@H](CCCNC(=N)N)C(=O)N[C@@H](CCCCN)C(=O)N[C@@H](CCCNC(=N)N)C(=O)N[C@@H](C)C(=O)N[C@@H](CCCCN)C(=O)N[C@H](C(=O)O)C(C)C)[C@@H](C)O [Peptide L2, Myristoyl-RRTARRKRAKV-OH] (Myristoyl-RRTARRKRAKV-OH)	inhibited; also recorded: clearly abrogated	significant reduction	significantly inhibited	significantly abrogated	abrogated	strongly nuclear	inhibited	significantly abrogated	lessened	strongly nuclear	significantly inhibited	significantly abrogated	significantly abrogated	reduction	significant abrogation	–	–	–	–	–	–
CCCCCCCCCCCCCC(=O)N[C@@H](CCCNC(=N)N)C(=O)N[C@@H](CCCNC(=N)N)C(=O)N[C@H](C(=O)N[C@@H](CO)C(=O)N[C@@H](CCCNC(=N)N)C(=O)N[C@@H](CCCNC(=N)N)C(=O)N[C@@H](CCCCN)C(=O)N[C@@H](CCCNC(=N)N)C(=O)N[C@@H](C)C(=O)N[C@@H](CCCCN)C(=O)N[C@H](C(=O)O)C(C)C)[C@@H](C)O [Peptide L1, Myristoyl-RRTSRRKRAKV-OH] (Myristoyl-RRTSRRKRAKV-OH)	inhibited; also recorded: clearly abrogated	significant reduction	significantly inhibited	significantly abrogated	abrogated	strongly nuclear	inhibited	significantly abrogated	lessened	strongly nuclear	significantly inhibited	significantly abrogated	significantly abrogated	significant abrogation	significant abrogation	–	–	–	–	–	–
CCCCCCCCCCCCCC(=O)O[C@@H]1[C@@H](C)[C@@]2(O)[C@@H](C=C(CO)C[C@]3(O)C(=O)C(C)=C[C@@H]23)[C@@H]2C(C)(C)[C@]12OC(C)=O [PMA, phorbol 12-myristate 13-acetate, reference compound]	–	–	–	–	–	–	–	–	–	–	–	–	–	–	–	decreased	98.4%	98.6%	3145	3126	PD-L1+ (Frequency of parent, %) [5, 8]: 98.5%; CD44^hi CD24^lo (Frequency of parent, %) [5, 9]: 98.3%; CD44^hi CD24^lo, PD-L1+ (Frequency of parent, %) [5, 9]: 99.2%; Mean Fluorescence Intensity of Comp Pacific Blue-A PD-L1, CD44^hi CD24^lo, PD-L1+ subset [5, 9]: 4016; Mean Fluorescence Intensity of Comp Pacific Blue-A PD-L1, PD-L1+ subset [5, 9]: 3983; PD-L1+ (Frequency of parent, %) [5, 9]: 99.1%; frequency (%) of PD-L1+ cells, change on stimulation [6]: not altered
CN(C)C(=O)c1cc2cnc(Nc3ccc(N4CCNCC4)cn3)nc2n1C1CCCC1 [Ribociclib]	–	–	–	–	–	–	–	–	–	–	–	–	–	–	–	–	–	–	–	–	PD-L1 nuclear (nPD-L1) expression (PD-L1 [7]; Patient A, FIG. 18A): greatest inhibition; PD-L1 nuclear expression (PD-L1 [7]; Patient B, FIG. 18B): inhibited; PD-L1 surface/cytoplasmic expression (PD-L1 [7]; Patient B, FIG. 18B): inhibited
CCCCCCCCCCCCCC(=O)N[C@@H](CCCNC(=N)N)C(=O)N[C@@H](Cc1c[nH]c2ccccc12)C(=O)N[C@@H](CCCNC(=N)N)C(=O)N[C@@H](CCCNC(=N)N)C(=O)N[C@H](C(=O)N[C@@H](C)C(=O)N[C@@H](CCCNC(=N)N)C(=O)N[C@@H](CCCNC(=N)N)C(=O)N[C@@H](CCCCN)C(=O)N[C@@H](CCCNC(=N)N)C(=O)N[C@@H](C)C(=O)N[C@@H](CCCCN)C(=O)N[C@H](C(=O)O)C(C)C)[C@@H](C)O [Peptide L3, Myristoyl-RWRRTARRKRAKV-OH] (Myristoyl-RWRRTARRKRAKV-OH)	inhibited; also recorded: clearly abrogated	significant reduction	significantly inhibited	significantly abrogated	abrogated	strongly nuclear	–	significantly abrogated	lessened	strongly nuclear	significantly inhibited	significantly abrogated	significantly abrogated	reduction	significant abrogation	–	–	–	–	–	–
B1	–	–	–	–	–	–	–	–	–	–	–	–	–	–	–	increases	77.7%	99.7%	6173	6015	PD-L1+ (Frequency of parent, %) [5, 8]: 99.7%; CD44^hi CD24^lo (Frequency of parent, %) [5, 9]: 98.9%; CD44^hi CD24^lo, PD-L1+ (Frequency of parent, %) [5, 9]: 99.7%; Mean Fluorescence Intensity of Comp Pacific Blue-A PD-L1, CD44^hi CD24^lo, PD-L1+ subset [5, 9]: 6173; Mean Fluorescence Intensity of Comp Pacific Blue-A PD-L1, PD-L1+ subset [5, 9]: 6133; PD-L1+ (Frequency of parent, %) [5, 9]: 99.7%; frequency (%) of PD-L1+ cells, change on stimulation [6]: not altered
